Laboratory results reported in ChEMBL document CHEMBL2016536, “New triazole derivatives as antifungal agents: synthesis via click reaction, in vitro evaluation and molecular docking studies” (2012).
≈ marks a conversion by molar mass, not a printed value.

Tests used:
Assay type in all cases: functional
Candida tropicalis [1] = assay: Antifungal activity against Candida tropicalis by microbroth dilution method
Cryptococcus neoformans = assay: Antifungal activity against Cryptococcus neoformans after 72 hrs by microbroth dilution method
Candida parapsilosis = assay: Antifungal activity against Candida parapsilosis by microbroth dilution method; settings: Lodderomyces parapsilosis
Candida albicans [2] = assay: Antifungal activity against Candida albicans Y0109 after 24 hrs by microbroth dilution method; settings: Y0109, 24 h
Aspergillus fumigatus = assay: Antifungal activity against Aspergillus fumigatus by microbroth dilution method
Trichophyton rubrum = assay: Antifungal activity against Trichophyton rubrum by microbroth dilution method
Candida albicans [3] = assay: Antifungal activity against Candida albicans SC5314 after 24 hrs by microbroth dilution method; settings: SC5314, 24 h
Kluyveromyces marxianus [4] = assay: Antifungal activity against Candida kefyr by microbroth dilution method
Kluyveromyces marxianus [5] = assay: Ratio of MIC80 for fluconazole to compound for Candida kefyr by microbroth dilution method
Candida albicans [6] = assay: Ratio of MIC80 for fluconazole to compound for Candida albicans SC5314 after 24 hrs by microbroth dilution method
Candida tropicalis [7] = assay: Ratio of MIC80 for fluconazole to compound for Candida tropicalis by microbroth dilution method

Row | MIC80 (Candida tropicalis [1]) [µg/mL] | MIC80 (Cryptococcus neoformans) [µg/mL] | MIC80 (Candida parapsilosis) [µg/mL] | MIC80 (Candida albicans [2]) [µg/mL] | MIC80 (Aspergillus fumigatus) [µg/mL] | MIC80 (Trichophyton rubrum) [µg/mL] | MIC80 (Candida albicans [3]) [µg/mL] | MIC80 (Kluyveromyces marxianus [4]) [µg/mL] | Compound | Ratio (Kluyveromyces marxianus [5]) | Ratio (Candida albicans [6]) | Ratio (Candida tropicalis [7])
1 | 0.25 (≈ 0.58 µM) | 0.5 (≈ 1.16 µM) | 0.125 (≈ 0.29 µM) | 0.0625 (≈ 0.145 µM) | 8 (≈ 18.6 µM) | 0.125 (≈ 0.29 µM) | < 0.125 | 0.0625 (≈ 0.145 µM) | OC(Cc1cn(Cc2cccc(Cl)c2)nn1)(Cn1cncn1)c1ccc(F)cc1F (centres undefined) |  |  | 
2 | 0.125 (≈ 0.269 µM) | 1 (≈ 2.15 µM) | 0.125 (≈ 0.269 µM) | 0.125 (≈ 0.269 µM) | 32 (≈ 68.8 µM) | 0.25 (≈ 0.537 µM) | 0.25 (≈ 0.537 µM) | 0.25 (≈ 0.537 µM) | OC(Cc1cn(Cc2ccc(Cl)c(Cl)c2)nn1)(Cn1cncn1)c1ccc(F)cc1F (centres undefined) |  |  | 
3 | 0.25 (≈ 0.537 µM) | 1 (≈ 2.15 µM) | 0.25 (≈ 0.537 µM) | 0.125 (≈ 0.269 µM) | 32 (≈ 68.8 µM) | < 0.125 | 0.25 (≈ 0.537 µM) | 0.5 (≈ 1.07 µM) | OC(Cc1cn(Cc2cc(Cl)cc(Cl)c2)nn1)(Cn1cncn1)c1ccc(F)cc1F (centres undefined) |  |  | 
4 | 0.125 (≈ 0.289 µM) | 1 (≈ 2.31 µM) | 0.125 (≈ 0.289 µM) | 0.125 (≈ 0.289 µM) | 16 (≈ 37 µM) | 0.25 (≈ 0.578 µM) | 0.25 (≈ 0.578 µM) | 0.25 (≈ 0.578 µM) | OC(Cc1cn(Cc2ccc(F)c(F)c2)nn1)(Cn1cncn1)c1ccc(F)cc1F (centres undefined) | 64 |  | 16
5 | 0.25 (≈ 0.526 µM) | 0.25 (≈ 0.526 µM) | 0.125 (≈ 0.263 µM) | 0.0625 (≈ 0.131 µM) | 8 (≈ 16.8 µM) | 0.25 (≈ 0.526 µM) | < 0.125 | 0.125 (≈ 0.263 µM) | OC(Cc1cn(Cc2cccc(Br)c2)nn1)(Cn1cncn1)c1ccc(F)cc1F (centres undefined) |  |  | 

Further lines, the molecule ahead of its results:

Row | Compound | MIC80 (Candida tropicalis [1]) [µg/mL] | MIC80 (Cryptococcus neoformans) [µg/mL] | MIC80 (Candida parapsilosis) [µg/mL] | MIC80 (Candida albicans [2]) [µg/mL] | MIC80 (Aspergillus fumigatus) [µg/mL] | MIC80 (Trichophyton rubrum) [µg/mL] | MIC80 (Candida albicans [3]) [µg/mL] | MIC80 (Kluyveromyces marxianus [4]) [µg/mL] | Ratio (Kluyveromyces marxianus [5]) | Ratio (Candida albicans [6]) | Ratio (Candida tropicalis [7])
6 | OC(Cc1cn(Cc2ccc(F)cc2)nn1)(Cn1cncn1)c1ccc(F)cc1F (centres undefined) | 0.25 (≈ 0.603 µM) | 0.25 (≈ 0.603 µM) | 0.125 (≈ 0.302 µM) | 0.0625 (≈ 0.151 µM) | 32 (≈ 77.2 µM) | 0.125 (≈ 0.302 µM) | < 0.125 | 0.0625 (≈ 0.151 µM) |  |  | 
7 | C[C@@H]1[C@H](O)[C@@H](C)/C=C/C=C/C=C/C=C/C=C/C=C/C=C/[C@H](O[C@@H]2O[C@H](C)[C@@H](O)[C@H](N)[C@@H]2O)C[C@@H]2O[C@](O)(C[C@@H](O)C[C@@H](O)[C@H](O)CC[C@@H](O)C[C@@H](O)CC(=O)O[C@H]1C)C[C@H](O)[C@H]2C(=O)O [AMPHOTERICIN B] | 1 (≈ 1.08 µM) | 1 (≈ 1.08 µM) | 0.25 (≈ 0.271 µM) | 0.25 (≈ 0.271 µM) | 1 (≈ 1.08 µM) | 4 (≈ 4.33 µM) | 0.25 (≈ 0.271 µM) | 0.25 (≈ 0.271 µM) |  |  | 
8 | Cc1ccc(Cn2cc(CC(O)(Cn3cncn3)c3ccc(F)cc3F)nn2)cc1 (centres undefined) | 0.125 (≈ 0.305 µM) | 0.125 (≈ 0.305 µM) | 0.0625 (≈ 0.152 µM) | 0.0039 (≈ 0.0095 µM) | 2 (≈ 4.87 µM) | 0.0625 (≈ 0.152 µM) | 0.0156 (≈ 0.038 µM) | 0.0156 (≈ 0.038 µM) | 256 | 128 | 
9 | N#Cc1ccc(Cn2cc(CC(O)(Cn3cncn3)c3ccc(F)cc3F)nn2)cc1 (centres undefined) | 0.125 (≈ 0.297 µM) | 0.5 (≈ 1.19 µM) | 0.25 (≈ 0.593 µM) | 0.0625 (≈ 0.148 µM) | 32 (≈ 75.9 µM) | 0.25 (≈ 0.593 µM) | 0.125 (≈ 0.297 µM) | < 0.125 |  |  | 
10 | CC(C)(C)c1ccc(Cn2cc(CC(O)(Cn3cncn3)c3ccc(F)cc3F)nn2)cc1 (centres undefined) | 0.0625 (≈ 0.138 µM) | < 0.125 | 0.125 (≈ 0.276 µM) | 0.0625 (≈ 0.138 µM) | 4 (≈ 8.84 µM) | 0.0625 (≈ 0.138 µM) | 0.0625 (≈ 0.138 µM) | 0.0625 (≈ 0.138 µM) |  |  | 
11 | N#Cc1ccccc1Cn1cc(CC(O)(Cn2cncn2)c2ccc(F)cc2F)nn1 (centres undefined) | 0.125 (≈ 0.297 µM) | 0.5 (≈ 1.19 µM) | 0.25 (≈ 0.593 µM) | 0.0625 (≈ 0.148 µM) | 16 (≈ 38 µM) | 0.25 (≈ 0.593 µM) | 0.125 (≈ 0.297 µM) | < 0.125 |  |  | 
12 | Cc1cccc(Cn2cc(CC(O)(Cn3cncn3)c3ccc(F)cc3F)nn2)c1 (centres undefined) | 0.125 (≈ 0.305 µM) | 0.125 (≈ 0.305 µM) | 0.0625 (≈ 0.152 µM) | 0.0156 (≈ 0.038 µM) | 4 (≈ 9.75 µM) | 0.0625 (≈ 0.152 µM) | 0.0625 (≈ 0.152 µM) | 0.0156 (≈ 0.038 µM) |  |  | 
13 | N#Cc1cccc(Cn2cc(CC(O)(Cn3cncn3)c3ccc(F)cc3F)nn2)c1 (centres undefined) | 0.125 (≈ 0.297 µM) | 1 (≈ 2.37 µM) | 0.25 (≈ 0.593 µM) | 0.0625 (≈ 0.148 µM) | 32 (≈ 75.9 µM) | 0.25 (≈ 0.593 µM) | 0.125 (≈ 0.297 µM) | < 0.125 |  |  | 
14 | O=[N+]([O-])c1ccccc1Cn1cc(CC(O)(Cn2cncn2)c2ccc(F)cc2F)nn1 (centres undefined) | 0.125 (≈ 0.283 µM) | 0.5 (≈ 1.13 µM) | < 0.25 | 0.0625 (≈ 0.142 µM) | 32 (≈ 72.5 µM) | 0.25 (≈ 0.566 µM) | < 0.125 | 0.0625 (≈ 0.142 µM) |  |  | 
15 | OC(Cc1cn(Cc2ccccc2)nn1)(Cn1cncn1)c1ccc(F)cc1F (centres undefined) | 0.0625 (≈ 0.158 µM) | < 0.25 | 0.0625 (≈ 0.158 µM) | 0.0625 (≈ 0.158 µM) | 16 (≈ 40.4 µM) | 0.25 (≈ 0.631 µM) | 0.125 (≈ 0.315 µM) | < 0.125 |  |  | 
